Row | Compound | melting point [°C]
1 | CC(=O)N1CC(Oc2c(C)cccc2C)C1 | 40 to 42.5
2 | O=C(Nc1ccc(N2CCNCC2)c(C(F)(F)F)c1)c1ccc(F)c(OCc2cnc3ccccc3c2)c1 | 76 to 78
3 | COc1cc(Cc2cnc(N)nc2NO)cc(OC)c1OC | 208 to 210
4 | COC(=O)c1ccc(S(=O)(=O)N2CC[C@H](O)C2)n1C | 108 to 109
5 | Cc1ccc(CC(=O)c2sccc2S(=O)(=O)Nc2onc(C)c2Br)cc1 | 146 to 150
6 | CC(C)(OCc1nn(C2CCCc3ccccc32)c2ccccc12)C(=O)O (centres undefined) | 132 to 134
7 | CC1(C)SCN(CCCCN2CCN(c3n[nH]c4cc(F)ccc34)CC2)C1=O | 123 to 125
8 | O=C1CCC(N2C(=O)c3ccccc3C2=S)C(=O)N1 (centres undefined) | 255
9 | O=S(=O)(c1nc2c([nH]1)-c1ccc(F)cc1Oc1ccccc1-2)C(F)(F)C(F)F | 171 to 173
10 | O=C(O)CNC(COCc1cc(C(F)(F)F)cc(C(F)(F)F)c1)C(c1ccccc1)c1ccccc1 (centres undefined) | 116 to 119
11 | CN1C(=O)SC(C)(S(=O)(=O)c2cccc3c(Br)cccc23)C1=O (centres undefined) | 160 to 161
12 | NNC(=O)c1ccc2[nH]nnc2c1 | 295 to 296
13 | COc1cc(OC)cc(-c2ncoc2-c2ccc(OC(F)F)c(N)c2)c1 | 105
14 | CC(=O)Nc1ccc(C2=NNC(=O)C3CC23)cc1 (centres undefined) | 269 to 270
15 | CC(=O)Nc1ccc(N2CCC(O)CC2)cc1 | 191
16 | COc1ccc2[nH]cc(CCCCN3CC=C(c4cccs4)CC3)c2c1 | 158
17 | CN(C)C(=O)N[C@H]1CC[C@H](CCN2CCN(c3ccc(O)c(Cl)c3Cl)CC2)CC1 | 278 to 280
18 | N=C(Nc1ccc(Cl)cc1)Nc1ncccc1OCc1c(F)cccc1Cl | 168 to 170
19 | CCOC(=O)c1c(-c2ccccc2)c2cc(Cl)ccc2n(C)c1=O | 124 to 125

Other lines, results leading:

Row | melting point [°C] | Compound
20 | 177 | Nc1cc2c(c3ccccc13)C(CCl)CN2C(=O)C(F)(F)F (centres undefined)
21 | 167 | N#Cc1cc(Oc2ccc3c(C(=O)Nc4cccc(C(F)(F)F)c4)cccc3c2)ncn1
22 | 200 to 201 | O=C(Nc1ccc(-n2nc(C(F)(F)F)cc2C(F)(F)F)cc1)c1ccc(C(F)(F)F)cc1C(F)(F)F
23 | 175 to 177 | CCOc1cc(C(=CC#N)c2ccc(NC(C)=O)cc2)ccc1OC
24 | 109 to 113 | CC(C)OC(=O)c1ccc(NC(=O)N2CC(CCCC#N)C(c3ccc(Cl)cc3)=N2)cc1 (centres undefined)
25 | 126 to 128 | CC(C)OC(=O)C1=C2SCC(=CC(=O)N(C)C)N2CC1C (centres undefined)
26 | 112 to 114 | CC(=O)OCc1ccccc1/C(=N\O)C(N)=O
27 | 184 to 185 | CC(C)n1nc(-c2c(-c3ccccc3)nn3ccc(C(=O)N4CCC(c5ccccc5)CC4)cc23)ccc1=O
28 | 117 to 118 | O=C1C(=O)c2ccccc2C2=C1SCC1(CCN(CCc3ccccc3)CC1)O2
29 | 264 to 266 | Cc1cc(N2CC=C(C(N)=O)CC2)c2cccc(-c3ccc(Cl)cc3Cl)c2n1
30 | 212 | COCC(=O)Nc1ccc(C2=NNC(=O)CC2C)cc1 (centres undefined)
31 | 197 | Cn1cncc1C(N)(c1ccoc1)c1ccc2c(c1)c(-c1cccc(Cl)c1)cc(=O)n2C (centres undefined)
32 | 225 to 228 | Cc1nc(N(C)C)sc1C(=O)c1ccc(N)c([N+](=O)[O-])c1
33 | 143 to 144 | O=C1N[C@@H](C=Cc2ccccc2)[C@H]1O
34 | 134 to 136 | C=CCON(C)C(=O)c1nc(-c2ccc(Cl)c(OC)c2F)cc(N)c1Cl
35 | 45 to 46 | COC(=O)Nc1ccccc1
36 | 186 to 188 | Cc1cccc(-c2nc3c(C)cccc3[nH]2)c1[N+](=O)[O-]
37 | 82 to 83.5 | CCC(=O)NCc1nc(-c2cc(C(C)(C)C)c(O)c(C(C)(C)C)c2)cs1
38 | 224 to 226 | O=C1CCC(N2Cc3c(OCc4ccc(Cl)cc4)cccc3C2=O)C(=O)N1 (centres undefined)
39 | 204 to 205 | COc1c(Br)cc([N+](=O)[O-])cc1-c1c2ccccc2c(Br)c2sc(C)c(C)c12
